In data set [1] the test system is HLA matched chronic myelogenous leukemia cell lines or CML blasts. The settings on record: T cells generated with analogue peptide. The protocol:
Supernatant fluids were harvested and radioactivity was measured in a gamma counter. Percent specific lysis was determined from the following formula: 100×[(experimental release minus spontaneous release)/(maximum release minus spontaneous release)].

In data set [2] the test system is CD8+ T cells. Briefly: Gamma interferon ELISPOT, CD8+ T cells after in vitro peptide stimulation. The settings on record: healthy HLA A0201 donors, peptide-pulsed T2 targets. It counts as cell-based, human.
Data set [3] addresses T1, HLA-A0201 molecules on T2 cells (Homo sapiens, UniProt P04439, D140Y/D185E/D98H/E176V/E277Q/G131W/G231S/I119V/I121R/I166T/I218V/L300P/L318F/N151K/N90K/P208A/P217A/Q86G/Q94H/R138H/R169H/T345S).
T1 construct: increase in the level of surface HLA-A0201 recognizable by specific mAb such as BB7.2; endogenous in cells; host or cells: T2 cells (human, TAP-deficient, HLA-A0201+)
The experiment in a line: T2 assay for peptide binding to HLA A0201. The settings on record: for binding to HLA A0201 molecules in T2 assay: bcr-abl b3a2 and b2a2 peptides. The protocol:
T2 cells (TAP−, HLA-A0201 +) were incubated overnight at 27° C. at 1×10E6 cells/ml in FCS-free RPMI medium supplemented with 5 μg/ml human β2 m (Sigma, St Louis, Mo.) in the absence, i.e., negative control, or presence of either a positive reference tyrosinase peptide or test peptides at various final concentrations of 50, 10, 1, and 0.1 μg/ml. Following a 4 h incubation with 5 μg/ml brefeldin A (Sigma), T2 cells were labeled for 30 min at 4° C. with a saturating concentration of anti-HLA-A2.1 (BB7.2) mAb, then washed twice. The cells then were incubated for 30 min at 4° C. with a saturating concentration of FITC-conjugated goat IgG F(ab′)2 anti-mouse Ig (Caltag, South San Francisco, Calif.), washed twice, fixed in PBS/1% paraformaldehyde and analyzed using a FACS Calibur cytofluorometer (Becton Dickinson, Immunocytometry systems, San Jose, Calif.).
The mean intensity of fluorescence (MIF) observed for each peptide concentration, after subtraction of the MIF observed without peptide, was used as an estimate of peptide binding. Stabilization assays were performed similarly. Following initial evaluation of peptide binding at time 0, cells were washed in RPMI complete medium to remove free peptides and incubated in the continuous presence of 0.5 μg/ml brefeldin-A for 2, 4, 6, and 8 hours. The amount of stable peptide-HLA-A2.1 complexes was estimated as described above by indirect immunofluorescence analysis. The half time of complexes is an estimate of the time required for a 50% reduction of the time 0 mean intensity of fluorescence value.
The immunogenicity of MHC class I-restricted peptides requires the capacity to bind and stabilize MHC class I molecules on the live cell surface. Moreover the computer prediction models above have only 60-80% predictive accuracy. Direct measurement of the strength of the interaction between the peptides and the HLA-A0201 molecule was made using a conventional binding and stabilization assay that uses the antigen-transporting deficient (TAP2-) HLA-A0201 human T2 cells. T2 cells lack TAP function and consequently are defective in properly loading class I molecules with antigenic peptides generated in the cytosol. The association of exogenously added peptides with thermolabile, empty HLA-A2 molecules stabilizes them and results in an increase in the level of surface HLA-A0201 recognizable by specific mAb such as BB7.2.

Data set [4] deals with CD3+ T cells. Briefly: Gamma interferon ELISPOT, CD3+ T cells after in vitro peptide stimulation. It is filed as cell-based, human. The settings on record: healthy HLA A0201 donors.
Data set [5] addresses HLA A0201 (Homo sapiens, UniProt P04439, D140Y/D185E/D98H/E176V/E277Q/G131W/G231S/I119V/I121R/I166T/I218V/L300P/L318F/N151K/N90K/P208A/P217A/Q86G/Q94H/R138H/R169H/T345S). Briefly: BIMAS predicted binding score for HLA A0201. The settings on record: p210F versus native CMLA2. The protocol:
The synthetic peptide analogue segments are designed by making one or two amino acid substitutions in anchor or auxiliary residues. Although the native peptides particularly described herein are nonamers encompassing the anchor or auxiliary residues, analogues may be designed having about 70% to about 130% of the amino acids in the native peptide. In the instant invention the synthetic peptide analogues may have about 8-12 amino acids. Such substitutions are determined by a bioinformatic model system (BIMAS) which uses a matrix approach to predict binding and ranks the peptides based on predicted binding to the HLA molecule. The amino acid sequences and predicted score for binding to HLA A0201 and HLA A0301 are generated by online software BIMAS available at http://bimas.dcrt.nih.gov/cgi-bin/molbio/ken parker comboform and […] available at http://syfpeithi.bmi-heidelberg.com/.
Based on this information and by using the software of the Bioinformatics & Molecular Analysis Section (National Institutes of Health, Washington, D.C.) available at http://bimas.dcrt.nih.gov/cgi-bin/molbio/ken parker comboform. This software ranks 9-mer or 10-mer peptides on a predicted half-time dissociation coefficient from HLA class I molecules (Pinilla, et al. Curr Opin Immunol, 11(2): p. 193-202 (1999)). […]

Residues, ends and D or L forms follow the SMILES beside them.

Here are results for eleven compounds from patent US7488718B2, “Synthetic HLA binding peptide analogues and uses thereof” (Sloan Kettering Institue for Cancer Research, priority 2003, dated 2009).

Take `CC[C@H](C)[C@H](NC(=O)[C@H](CC(C)C)NC(=O)[C@@H](N)Cc1ccc(O)cc1)C(=O)N[C@@H](CC(N)=O)C(=O)N[C@@H](CCCCN)C(=O)N[C@@H](CCC(=O)O)C(=O)N[C@@H](CCC(=O)O)C(=O)N[C@@H](C)C(=O)N[C@@H](CC(C)C)C(=O)O` [b3a2 A3, YLINKEEAL] (H-YLINKEEAL-OH; N-terminus and C-terminus assumed): in data set [1], the “cytotoxicity against CML cells expressing b3a2 or b2a2” value is listed as “Significant cytotoxicity was generated”.

Turning to `CC(C)C[C@H](NC(=O)[C@H](CC(C)C)NC(=O)[C@@H](N)CCCCN)C(=O)N[C@@H](CCC(N)=O)C(=O)N[C@@H](CCCNC(=N)N)C(=O)N1CCC[C@H]1C(=O)N[C@H](C(=O)N[C@@H](C)C(=O)N[C@H](C(=O)O)C(C)C)C(C)C` [p210C] (H-KLLQRPVAV-OH; N-terminus and C-terminus assumed), the “cytotoxicity against CML cells expressing b3a2 or b2a2” value in data set [1] was “Significant cytotoxicity was generated”.

With KLSSKALQV (analogue peptide p210B), in data set [2], the “immune response, IFN gamma secretion” value is “No immune response could be generated”.

KQSSKALQV (analogue peptide p210A): the “immune response, IFN gamma secretion” value in data set [2] is recorded as “No immune response could be generated”.

With “SSKALQRPV (native peptide CMLA2) [reference compound]”, the “binding to HLA A0201 molecules in T2 assay” value in data set [3] was “weak binder”; in data set [3] (listed as CML A2), “natural weak binder”.

Regarding TLFKQSSKV (analogue peptide p210D), the “immune response, IFN gamma secretion” value in data set [2] is “produced an immune response in some of the donors tested”.

Turning to YLFKQSSKV (analogue peptide p210E), the “immune response, IFN gamma secretion” value in data set [2] is on record as “produced an immune response in some of the donors tested”.

Take YLGATLKGV (analogue peptide WT-1 D1): the “binding to HLA A0201, thermostabilization on T2” value in data set [3] (WT-1 peptides) was “significantly higher level of binding to HLA-A0201 over WT1-D”.

In the case of YLINKEEAV (analogue peptide b3a2 A4), the “immune response, gamma interferon secretion” value in data set [4] is given as “generated an immune response in two healthy donors”.

As for YLINKVEAL (analogue peptide b3a2 A5), the “immune response, gamma interferon secretion” value in data set [4] is reported as “generated an immune response in two healthy donors”.

As to YLKALQRPV (analogue peptide p210F), in data set [5], the BIMAS prediction improvement is reported as 700 fold. The “binding to HLA A0201 molecules in T2 assay” value in data set [3] is recorded as “excellent avidity for HLA A0201 molecules”. Further, the “immune response, IFN gamma secretion” value in data set [2] is “generated a more consistent and higher immune-responses”.
